The NIST ThermoML archive (doi:10.1021/je100598x)

Experiment: cn = amount concentration of the nth substance listed, in mol/dm3
Conditions: 101 kPa, Liquid, Direct current cell with electrodes

CCCCCCCCCCCC[N+](C)(C)C.[Br-] [dodecyltrimethylammonium bromide] + O
electrical conductivity [S/m]
Conditions	288.15 K	293.15 K	298.15 K	303.15 K	308.15 K	313.15 K	318.15 K
c1 = 0.001961	0.0157	0.0175	0.0196	0.0218	0.0238	0.0261	0.0279
c1 = 0.003846	0.0294	0.0332	0.0372	0.0411	0.045	0.0494	0.0531
c1 = 0.00566	0.0421	0.0478	0.0533	0.0592	0.0647	0.0711	0.076
c1 = 0.007407	0.0542	0.0614	0.0689	0.0762	0.0833	0.0914	0.0969
c1 = 0.009091	0.0654	0.0743	0.0833	0.0921	0.1007	0.1109	0.119
c1 = 0.01071	0.0762	0.0865	0.0964	0.107	0.117	0.129	0.139
c1 = 0.01228	0.0863	0.098	0.11	0.1218	0.1328	0.146	0.158
c1 = 0.01379	0.0954	0.109	0.1222	0.136	0.148	0.1623	0.175
c1 = 0.01525	0.105	0.119	0.1337	0.148	0.162	0.178	0.1919
c1 = 0.01667	0.1103	0.125	0.1405	0.157	0.1727	0.1907	0.206
c1 = 0.01758	0.1125	0.128	0.1433	0.1605	0.177	0.197	0.215
c1 = 0.01848	0.1143	0.13	0.146	0.1634	0.1807	0.201	0.222
c1 = 0.01936	0.116	0.1315	0.148	0.166	0.1837	0.205	0.226
c1 = 0.02021	0.117	0.1332	0.1501	0.168	0.187	0.209	0.23
c1 = 0.02105	0.119	0.135	0.1521	0.17	0.19	0.212	0.234
c1 = 0.02188	0.1203	0.137	0.154	0.172	0.1922	0.215	0.238
c1 = 0.02268	0.1216	0.138	0.156	0.1741	0.195	0.218	0.242
c1 = 0.02347	0.1229	0.14	0.158	0.176	0.198	0.22	0.246
c1 = 0.02424	0.1242	0.1411	0.159	0.178	0.2	0.223	0.249
c1 = 0.025	0.126	0.1425	0.161	0.1805	0.203	0.226	0.252
c1 = 0.02611	0.127	0.145	0.1636	0.1831	0.206	0.23	0.258
c1 = 0.02718	0.129	0.147	0.166	0.186	0.21	0.234	0.263
c1 = 0.02823	0.131	0.149	0.169	0.189	0.213	0.238	0.268
c1 = 0.02925	0.1327	0.151	0.171	0.1912	0.217	0.242	0.272
c1 = 0.03023	0.1344	0.1529	0.1733	0.1937	0.22	0.246	0.277
